Source: PMC10114720

How the values were obtained:
[1] = neutral chemical: log K is the mean of log D over all measurements at the three pH values (D shown independent of pH, paired t-test); sd is the table's stddev. PDMS sheets cleaned by Soxhlet with ethyl acetate; batch shaking method with a mixture of all chemicals at several PDMS-mass to water-volume ratios and spiked levels; vials shaken on an orbital shaker at room temperature in the dark, sampled at two equilibration times; PDMS extracts and water quantified by LC-HRMS (Orbitrap); D from the slope of C_PDMS on C_w or their ratio; details: PDMS (polydimethylsiloxane silicone sheet); phosphate buffer at three target pH values (the paper's methods)
[2] = PDMS sheets cleaned by Soxhlet with ethyl acetate; batch shaking method with a mixture of all chemicals at several PDMS-mass to water-volume ratios and spiked levels; vials shaken on an orbital shaker at room temperature in the dark, sampled at two equilibration times; PDMS extracts and water quantified by LC-HRMS (Orbitrap); D from the slope of C_PDMS on C_w or their ratio; value is the mean over that pH's experiments (individual experiments in the SI's concentrations table), sd is the table's stdev; details: PDMS (polydimethylsiloxane silicone sheet), phosphate buffer at three target pH values (the paper's methods)
[3] = monoprotic acid or base: log K of the neutral species extrapolated from the linear regression of D on the neutral fraction (from pKa and pH; the paper's eq. for monoprotic IOCs), the slope giving K of the neutral species; replicates column holds the table's 95% confidence limits. PDMS sheets cleaned by Soxhlet with ethyl acetate; batch shaking method with a mixture of all chemicals at several PDMS-mass to water-volume ratios and spiked levels; vials shaken on an orbital shaker at room temperature in the dark, sampled at two equilibration times; PDMS extracts and water quantified by LC-HRMS (Orbitrap); D from the slope of C_PDMS on C_w or their ratio; details: PDMS (polydimethylsiloxane silicone sheet); phosphate buffer at three target pH values (the paper's methods)

Compound	log K PDMS/w (neutral species) [1]	log D PDMS/w (apparent distribution ratio at the stated pH) ([2]; pH 3)	log D PDMS/w (apparent distribution ratio at the stated pH) ([2]; pH 7.4)	log D PDMS/w (apparent distribution ratio at the stated pH) ([2]; pH 11.5)	log K PDMS/w (neutral species) [3]
N#Cc1nn(-c2c(Cl)cc(C(F)(F)F)cc2Cl)c(N)c1S(=O)(=O)C(F)(F)F	2.329 log units; D and K as the pape	2.417 log units; D and K as the pape	2.376 log units; D and K as the pape	2.192 log units; D and K as the pape	
[O-][n+]1cccc2ccccc21	1.126 log units; D and K as the pape	1.066 log units; D and K as the pape	1.11 log units; D and K as the pape	1.203 log units; D and K as the pape	
CCCCOCCOCCOCc1cc2c(cc1CCC)OCO2	3.661 log units; D and K as the pape	3.728 log units; D and K as the pape	3.685 log units; D and K as the pape	3.574 log units; D and K as the pape	
CCCCCCCCCCCC(=O)NCC(C)O (centres unmarked)	3.231 log units; D and K as the pape	3.188 log units; D and K as the pape	3.329 log units; D and K as the pape	3.181 log units; D and K as the pape	
CN(C)c1ccc(C(=O)c2ccc(N(C)C)cc2)cc1	2.057 log units; D and K as the pape	2.372 log units; D and K as the pape	2.263 log units; D and K as the pape	1.409 log units; D and K as the pape	
O=C(/C=C/C=C/c1ccc2c(c1)OCO2)N1CCCCC1	3.135 log units; D and K as the pape	3.24 log units; D and K as the pape	3.109 log units; D and K as the pape	3.066 log units; D and K as the pape	
N#Cc1nn(-c2c(Cl)cc(C(F)(F)F)cc2Cl)c(N)c1C(F)(F)F	1.919 log units; D and K as the pape	1.946 log units; D and K as the pape	1.927 log units; D and K as the pape	1.883 log units; D and K as the pape	
c1ccc2[nH]nnc2c1		0.055 log units; D and K as the pape	0.06625 log units; D and K as the pape		0.1268 log units; D and K as the pape
c1ccc(-c2ccc(C(c3ccccc3)n3ccnc3)cc2)cc1 (centres unmarked)		2.122 log units; D and K as the pape	4.209 log units; D and K as the pape	4.169 log units; D and K as the pape	4.281 log units; D and K as the pape
O=c1c2ccccc2[nH]c2ccccc12		1.351 log units; D and K as the pape	1.251 log units; D and K as the pape	1.334 log units; D and K as the pape	1.406 log units; D and K as the pape
NC(=O)/N=C1\SCCN1Cc1ccc(Cl)nc1		0.2411 log units; D and K as the pape	0.3692 log units; D and K as the pape	0.4142 log units; D and K as the pape	0.4822 log units; D and K as the pape
c1ccc2sc(N3CCOCC3)nc2c1		1.704 log units; D and K as the pape	1.897 log units; D and K as the pape	1.881 log units; D and K as the pape	2.029 log units; D and K as the pape
Clc1ccc2n[nH]nc2c1		0.7386 log units; D and K as the pape	0.79 log units; D and K as the pape	0.065 log units; D and K as the pape	1.144 log units; D and K as the pape
CSc1nc(NC2CC2)nc(NC(C)(C)C)n1		2.006 log units; D and K as the pape	2.689 log units; D and K as the pape	2.624 log units; D and K as the pape	2.78 log units; D and K as the pape
c1ccc2[nH]c(-c3cscn3)nc2c1		0.5417 log units; D and K as the pape	1.69 log units; D and K as the pape	1.693 log units; D and K as the pape	1.855 log units; D and K as the pape
c1ccc2nc3ccccc3cc2c1		0.945 log units; D and K as the pape	2.315 log units; D and K as the pape	2.167 log units; D and K as the pape	2.366 log units; D and K as the pape

Other lines, results leading:

log K PDMS/w (neutral species) [1]	log D PDMS/w (apparent distribution ratio at the stated pH) ([2]; pH 3)	log D PDMS/w (apparent distribution ratio at the stated pH) ([2]; pH 7.4)	log D PDMS/w (apparent distribution ratio at the stated pH) ([2]; pH 11.5)	log K PDMS/w (neutral species) [3]	Compound
1.593 log units; D and K as the pape	1.579 log units; D and K as the pape	1.554 log units; D and K as the pape	1.65 log units; D and K as the pape		Cc1c(C(C)C)c(=O)n(-c2ccccc2)n1C
-0.02333 log units; D and K as the pape	-0.06167 log units; D and K as the pape	-0.02167 log units; D and K as the pape	0.01333 log units; D and K as the pape		CN(C)S(=O)(=O)c1ccc(N)cc1
-0.2009 log units; D and K as the pape	-0.2614 log units; D and K as the pape	-0.1813 log units; D and K as the pape	-0.1629 log units; D and K as the pape		Cc1c(C=O)c(=O)n(-c2ccccc2)n1C
1.711 log units; D and K as the pape	1.764 log units; D and K as the pape	1.684 log units; D and K as the pape	1.69 log units; D and K as the pape		CCOC(=O)C(C)(C)Oc1ccc(Cl)cc1
4.227 log units; D and K as the pape	4.266 log units; D and K as the pape	4.252 log units; D and K as the pape	4.168 log units; D and K as the pape		CC(C)c1ccc2sc3ccccc3c(=O)c2c1
	1.11 log units; D and K as the pape	1.067 log units; D and K as the pape	1.073 log units; D and K as the pape	1.285 log units; D and K as the pape	CC(C)(C)c1ccc(S(N)(=O)=O)cc1
	-0.08 log units; D and K as the pape	-0.44 log units; D and K as the pape	-0.57 log units; D and K as the pape	0.07041 log units; D and K as the pape	NC(=O)N1c2ccccc2C(O)C(O)c2ccccc21 (centres unmarked)
	1.101 log units; D and K as the pape	1.143 log units; D and K as the pape		0.9455 log units; D and K as the pape	CCOC(=O)CC(O)(CC(=O)OCC)C(=O)OCC
	0.51 log units; D and K as the pape	0.4188 log units; D and K as the pape	0.4886 log units; D and K as the pape	0.5936 log units; D and K as the pape	CCNS(=O)(=O)c1ccccc1C
	0.7917 log units; D and K as the pape	0.8008 log units; D and K as the pape	0.8475 log units; D and K as the pape	0.9136 log units; D and K as the pape	Cc1cc(=O)oc2cc(N)ccc12
	1.032 log units; D and K as the pape			1.057 log units; D and K as the pape	CCC1(c2ccccc2)C(=O)NCNC1=O
